These results are taken from patent US20250194968A1, “ADMINISTRATION OF AMINOLEVULINIC ACID WITH DELAYED FLUORESCENT IMAGING TO MAP AND QUANTIFY TISSUE OXYGENATION LEVELS” (THE TRUSTEES OF DARTMOUTH COLLEGE, priority 2022, published 2025).

The subject of this test is subcutaneous human pancreatic adenocarcinoma BxPC3 tumors. The experiment in a line: PpIX delayed/immediate fluorescence imaging of subcutaneous tumors after ALA injection, with palpation. Format: in vivo. The settings on record: nude mice with BxPC3 tumors, ALA 250 mg/kg intraperitoneal, imaged 6 hours later. As for the experimental part:
Nude female mice were inoculated with a single subcutaneous injection of 10^6 human pancreatic adenocarcinoma BxPC3 cells, under the skin on the flank. After approximately 3 weeks of growth, animals were chosen for imaging when their tumor diameter reached approximately 8 mm in size. These nude mice were used in the imaging experiments described below.
ALA was either intraperitoneally injected (250 mg/kg) 6 hours prior to imaging, or topically applied onto a region of interest 3 hours before imaging as Ameluz (Trademark of Biofrontera AG, Leverkusen, Germany), ointment containing 10% ALA, as further described below
Images of tumor in the live mice were acquired using a highly sensitive intensified CMOS camera synchronized with a 50-mW average output power, 635 nm, modulated diode laser using 20 microsecond (μs) pulses at repetition rate of 500 hertz (Hz) providing pulsed fluorescence excitation light. […] Irradiance were measured using a power meter with a photodiode power sensor.
The intensifier of the intensified CMOS camera was directly controlled by circuitry synchronized to the laser pulses. […] Fifty laser pulse gate periods were integrated in each image frame, alternating between immediate fluorescence and delayed fluorescence for even and odd frames, respectively. […]

In the case of `NCC(=O)CCC(=O)O` [ALA, aminolevulinic acid], for the setting “after palpation”, the “duration of excellent tumor contrast from palpation-induced deoxygenation” value is on record as “up to 5 min”. Further, the “contrast in a pancreatic cancer model relative to surrounding normal oxygenated tissues (delayed fluorescence and DF/IF ratio)” value (in some examples) is given as 5 factor.
